One molecule from patent EP4653001A1, “TREATMENT, DIAGNOSIS AND/OR PROGNOSIS OF MITOCHONDRIAL DISEASES” (Universidad Autónoma de Madrid, priority 2024, dated 2025) can be followed below.

The test system of assay [1] is primary neurons. Briefly: Patch-clamp capacitance analysis. Type of assay: cell-based, mouse. Particulars: CI inhibition. Here is the method: A glass coverslip containing mixed cortical cultures of 10-14 DIV was placed in an immersion chamber constantly perfused with aCSF (119 mM NaCl, 2.5 mM KCl, 2.5 mM CaCl2, 1.2 mM MgCl2, 26 mM NaHCO3, 1 mM NaH2PO4, 11 mM glucose pH adjusted to 7.4 and osmolarity to 290 ±5 mOsm) gassed with carbogen (5-10% CO2, 90-95% O2) and its temperature closely monitored at 29°C. Cells were recorded under current-clamp configuration with patch recording glass electrodes (4-6 MΩ) composed of silver/silver chloride electrodes inserted in glass pipettes filled with internal solution (115 mM K gluconate, 20 mM KCl, 10 mM HEPES, 2 mM MgCl2, 4 mM Na2-ATP, 0.3 mM Na3-GTP pH adjusted to 7.2-7.3 and osmolarity to 290 ±5 mOsm). Resting membrane potential was directly acquired from these recordings. Voltage responses to current injections of -100 pA were used to calculate whole-cell input resistance and membrane capacitance. This last parameter is calculated from the exponential time constant (τ) of the voltage change, as τ=R*C (R: input resistance, C: capacitance).
Data acquisition was carried out with MultiClamp 700 A/B amplifiers and pCLAMP 9/10 software (Molecular Devices). Data analysis was performed using Clampfit software (Molecular Devices).

Assay [2] deals with 143B cells. Briefly: Time-course cell proliferation / survival of 143B cells. Conditions: 143B cells, over the course of 96 h; Piericidin 100 nM, G6PDi 50 uM; combination effect beyond 48 h. Type of assay: cell-based. The procedure: All cell lines, 143b, HeLa, U2OS, and transmitochondrial cybrids carrying mutation in CI (ND2), CIII (CytB) or CIV (Cox2) subunits, were maintained in DMEM high glucose (HyClone), 10% FBS and 1% P/S at 37°C with 5% CO2. Mitochondrial mutant cells were cultured with supplementation of 50 µg/mL uridine. The selected cancer cell lines with different levels of malic enzyme (HCC15, KYSE410, CAKI1, J82, MDAMB453, Colo320, NCIH1703) were obtained from the DSMZ-German Collection of Microorganisms and Cell Cultures GmbH and cultured in the same DMEM 10% FBS medium. OCI-Lys3 and RCH-ACV cell lines (cells in suspension), were obtained from the same repository and cultured in RPMI 10% FBS medium. Transfections for gain- and loss-of-function studies were performed according to the manufacturer's instructions using the polyfect reagent (Qiagen, 301107). […] Subsequently, cells were trypsinized and quantified using a hemocytometer (NanoEnTek, DHC-N01). Cell viability was quantified using propidium iodide (PI; 50 µg/ml) staining.
Next, we conducted time-course experiments to gain further knowledge on the metabolic determinants underlying the observed synthetic lethality between PPP and OXPHOS. 143B cells were treated either with Piericidin or G6PDi (selective inhibitor of G6PD) alone or the combination of both and cell proliferation was quantified over the course of 96 h. […]

In assay [3] the test system is 143B cells. The experiment in a line: PPP activity measurement in 143B cells. Format: cell-based. Particulars: 24 h. The procedure: The determination of pentose-phosphate pathway (PPP) activity was conducted by assessing the difference between 14CO2 production from 1-14C-glucose, which decarboxylates through the 6-phosphogluconate dehydrogenase-catalyzed reaction, and that of 6-^14C-glucose, which decarboxylates through the tricarboxylic acid cycle.
Increased lactate secretion is considered a good indicator of enhanced glycolytic rates, which is a common feature of ETC-inhibited cells as they switch from OXPHOS to glycolysis to maintain ATP levels. […] We culture 143B cells in the presence of Piericidin for 24 h and PPP activity and lactate release, as a proxy of glycolysis, were measured. As expected, lactate detection in the media was higher in CI-inhibited cells. […] Next, we wonder if in this context, glucose can be overused by glycolysis and therefore diverted away from the PPP. Diseases associated with impaired mitochondrial function negatively impact high energy demanding tissues such as the brain. As such, neurons that are highly sensitive to ETC inhibition also rely strongly on glucose metabolism. Thus, we used mouse cortical neurons to determine the rates of glycolysis and PPP as glucose levels become limiting. Control and Piericidin treated neurons where cultured in media containing supraphysiological (25 mM), physiological (5 mM) or subphysiological concentrations of glucose (2,5 mM). […]

Assay [4] has as its system primary neurons. Briefly: Neuron axon morphology (immunofluorescence). Particulars: CI inhibition, 100 nM 24 h, extensive axon degeneration. Type of assay: cell-based, mouse. Here is the method: Primary cultures of C57BL/6 mouse cortical neurons were prepared from embryos between embryonic days 16.5 and 17.5 and seeded onto pre-treated plates coated with Poly-L-lysine hydrobromide (500 µg/ml). We used Neurobasal medium without D-glucose and sodium pyruvate (ThermoFisher) to modulate D-glucose levels, depending on the experiment (2.5 mM, 5 mM, or 25 mM).
Neuron axon morphology was quantified in primary neurons exposed to DMSO or 100 nM piericidin for 24 h. Neurons were fixed with 4% paraformaldehyde for 10 min, blocked, and permeabilized in 0.1% Triton X-100 (Tx)-PBS with 10% fetal bovine serum for 15 minutes at room temperature. Then, neurons were incubated with the primary BIII-Tubulin antibody (1:500, ab78078, Abcam) in 0.1% Tx/10% FBS-PBS overnight at 4°C. Subsequently, wells were rinsed several times in PBS before applying the fluorochrome-conjugated secondary antibody (ThermoScientific) in 0.1% Tx/10% FBS-PBS for 1h at room temperature. Neurons were finally washed in PBS, and DAPI was added prior to the microscopic analysis. Acquired confocal images were quantified by measuring the BIII-Tubulin fluorescent integrated density and normalized by the number of DAPI-positive nuclei.

Turning to `CC=C(C)C(O)C(C)C=C(C)C=CCC(C)=CCc1nc(OC)c(OC)c(O)c1C` (stereo not shown) [Piericidin, Piericidin A], the capacitance entry with primary neurons [1] is listed as “lower”. Further, the “cellular fitness / cell survival” value with 143B cells [2] is on record as “did not cause a substantial decline”. Moreover, the PPP activity entry with 143B cells [3] is listed as “significant increase”. For the same molecule, in the assay on primary neurons [4], the neuron morphology entry is given as “significant morphological alterations”.
